# According to US8637493B2, “Methods for treating glioblastoma” (University of Massachusetts, priority 2009, dated 2014):
# What was measured:
# U373NS = assay: Neurosphere formation / recovery / secondary neurosphere assay, U373NS; type: cell-based, human
# Method: (§1) The effect of chemotherapy on neurosphere formation was assayed in glioma neurosphere cultures. Cultures are treated with a single dose of the agent, e.g., TMZ and multiple doses of a GSI, e.g., DAPT to inhibit the Notch pathway. After the Treatment phase, the number of initial spheres (counted about 7 days after TMZ treatment) represents the number of proliferating CSC/progenitors (FIG. 1 for schematic). Recovery (counted 14 days after TMZ treatment) includes enlargement of the initial spheres and new spheres formed when CSC/progenitor cells quiescent as a result of chemotherapy resume cell proliferation. […] The cells used included U87NS, a neurosphere culture converted to neurosphere growth in defined medium from U87MG (an old Swedish line that is grown in conventional serum conditions); GS7-2, GS8-26 and GS6-22 primary neurosphere cultures that were obtained from grade IV GBM patient tumor samples and AS5-15, which was obtained from a grade III anaplastic astrocytoma.
# (§2) To determine the effects of TMZ plus DAPT neurospheres, cells were plated as previously described (Mihaliak et al., Cancer Letts. 296, 168-177 (2010)). Immediately after plating, cells were treated with DMSO, DAPT-only, LY411,575 (LY)-only TMZ-only, TMZ+DAPT or TMZ+LY. The initial neurospheres were counted on day 7 for the converted cell lines and on day 10 for the slower growing primary lines. Neurosphere recovery was measured on day 14 or 20. The neurospheres were dissociated, re-plated and secondary neurosphere formation was measured on day 21 or 30.
# (§3) Neurosphere cultures were dissociated to single cell suspensions by pH dissociation followed by filtration through 40 μm screens. For the neurosphere assay, 3,000 cells/ml of defined medium were seeded in 6-well plates. Immediately after plating, cells were treated with DMSO (Research Organics, Cleveland, Ohio) carrier control, TMZ-only, DAPT-only, or TMZ+DAPT. Additional DAPT was added on days 2 and 4. Neurospheres consisting of 10 or more cells were counted under a light microscope on day 7 for the converted cell lines. Primary lines have a slightly longer doubling time and were counted on day 10. After counting the neurospheres from the initial treatment, 2 ml of fresh defined medium was added to each well. DAPT was also added once more to the DAPT-only and TMZ+DAPT samples, and the cells were incubated for an additional 7 or 10 days. Neurospheres from the recovery period were counted on day 14 or day 20. To analyze secondary neurosphere formation, cells were collected, pelleted and dissociated to a single cell suspension by the pH method. Cells from each well were re-seeded into 6-well plates with 2 ml of defined medium. The number of secondary neurospheres formed by converted cell lines and primary cultures were counted on day 21 or day 30, respectively. All recovery assays were repeated with a minimum of 6 replicate sets of time points.
# U87NS = assay: Neurosphere formation / recovery / secondary neurosphere assay, U87NS; type: cell-based, human; settings: LY alone at various concentrations, counted after 7 days
# Method: as §1, §2, §3
# For the samples labeled “PRE-treat”, a single dose of DAPT was administered when the cells were plated, and then TMZ was added to the medium 24 hours later. For the “CO-treat” samples, single doses of TMZ and DART were added simultaneously when the cells were plated. Finally, samples labeled “POST-treat” were treated with TMZ, and then DAPT was added 24 hours later.
smiles,measurement,setting,value
"C[C@H](NC(=O)[C@@H](O)c1cc(F)cc(F)c1)C(=O)N[C@@H]1C(=O)N(C)c2ccccc2-c2ccccc21 [LY, N-2((2S)-2-(3,5-difluorophenyl)-2-hydroxyethanoyl)-N1-((7S)-5-methyl-6-oxo-6,7-dihydro-5H-dibenzo[b,d]azepin-7-yl)-L-alaninamide]",neurosphere formation,"U373NS; LY alone at various concentrations, counted after 7 days",dose-dependent decrease
same,secondary neurosphere formation compared to DMSO treated samples,"U373NS; LY-only, secondary formation still robust",decreased
same,neurosphere formation,U87NS,dose-dependent decrease
